This passage reports Km results from article doi:10.1101/525329v1, “The large loop-8 insert in Saccharomyces cerevisiae kinesin-5 Cin8 is necessary and sufficient to promote noncanonical microtubule interactions” (biorxiv, 2019).

What all share (assay): NADH-coupled steady-state ATPase assay
The test system of one test is T1, Eg5-CL8.
T1 construct: gene KIF11; monomeric Eg5 motor domain with 99-residue Cin8 loop-8 insert; bacterial expression, pET16b
The class given is biochemical, Homo sapiens. The conditions noted are these: low ionic strength (7.5 mM KCl, 21 mM IS), 2 μM paclitaxel-stabilized bovine microtubules, 2 mM MgCl2, pH 7.2, 298 K; kcat from microtubule-dependent fit at 1 mM ATP.

A further test concerns T2, Eg5-KL8.
T2 construct: gene KIF11; monomeric Eg5 motor domain with Kip1 loop-8 insert; bacterial expression, pET16b
The class given is biochemical, Homo sapiens. The conditions noted are these: high ionic strength (75 mM KCl, 88 mM IS), 10 μM paclitaxel-stabilized bovine microtubules, 2 mM MgCl2, pH 7.2, 298 K; kcat from microtubule-dependent fit; read-out: Km,ATP.

A further test concerns T3, Cin8-EL8.
T3 construct: monomeric Cin8 motor domain with Eg5 loop-8 insert; bacterial expression, pET32b
The class given is biochemical, Saccharomyces cerevisiae. The conditions noted are these: low ionic strength (7.5 mM KCl, 21 mM IS), 5 μM paclitaxel-stabilized bovine microtubules, 2 mM MgCl2, pH 7.2, 298 K; kcat from microtubule-dependent fit; read-out: Km,ATP.

As for `Nc1ncnc2c1ncn2[C@@H]1O[C@H](COP(=O)(O)OP(=O)(O)OP(=O)(O)O)[C@@H](O)[C@H]1O` [ATP], the Km was found to be 40 ± 11 µM in the test with Eg5-CL8, 16 ± 4 µM in the test with Eg5-KL8 and 39 ± 7 µM in the test with Cin8-EL8.
